Where “and” joins values, the source holds several entries; their conditions need not be identical. Equal values may be shown once. Marks after values point to notes of the source that are not given here.
Assays:
[1] = system: neutrophils; assay: Neutrophil response to proteose peptone and phagocytic activity in CBA mice; type: in vivo; details: for Phagocytes (%) / Phagocytic Index: induced neutrophils; for Total Number of Cells Induced: neutrophil response to proteose peptone
[2] = system: lymphocytes; assay: In vitro incubation of pyoderma patients' lymphocytes with 0.01% L-Glu-L-Trp; type: cell-based, human; details: 100 μg/mL in vitro

L-Glu-L-Trp
Exudate cell concentration ([1]; 0.01 mg/kg): 0.9×10^6 | Neutrophil migration and phagocytic activity ([1]; 0.01 mg/kg): did not appear to stimulate neutrophil migration | Increase in percentage of phagocytic cells ([1]; 1 mg/kg, six day ip pretreatment): 1.5 fold and 1.7 fold | Phagocytes (%) ([1]; 0.1 mg/kg (so in the source)): 17.8 ± 1.13% | Phagocytic Index ([1]; 0.1 mg/kg (so in the source)): 1.90 ± 0.05 No. bacteria/phagocyte | Phagocytes (%) ([1]; 1 mg/kg): 31.5 ± 0.4 % | Phagocytic Index ([1]; 1 mg/kg): 1.89 ± 0.03 No. bacteria/phagocyte | Number of neutrophils induced by proteose peptone ([1]; ip pretreatment (0.1 mg/kg)): doubled | Total Number of Cells Induced ([1]; 0.01 mg/kg ip pretreatment): 50 ×10^6 | Total Number of Cells Induced ([1]; 1 mg/kg ip pretreatment): 80* ×10^6 | Neutrophils, Phagocytic Index ([1]; treated mice, sterile inflammatory agent): ns | E-RFC [2]: 73.3±2.26% | OKT4+ lymphocytes [2]: 18.2±1.6% | OKT8+ lymphocytes [2]: 17.9±1.4%
